Where two headings read alike, the source gives them in different places.
How the values were obtained:
Format in all cases: cell-based
[1] = tested on: NCI-H441 cells; test: 3D cell proliferation assay (CellTiter Glo-3D) in NCI-H441 cells; details: NCI-H441, human lung cancer cell strain, KRAS G12V mutation, 3D culture, 2% FBS, 5 days, read-out: H441 AP IC50
Summary of the method: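 After a 5-day exposure at 37 °C to 3.16-fold serial dilutions (final DMSO 0.1%) in 2% FBS RPMI-1640, ATP luminescence (CellTiter-Glo 3D) was read. Cells were AsPC-1 (KRAS G12D) or NCI-H441 (KRAS G12V), 800 per well; inhibition used DMSO and medium-only controls, with four-parameter curve fitting giving IC50.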

[2] = tested on: p-ERK; test: Cell p-ERK assay (HTRF, Advance ERK phospho-T202/Y204 kit) in NCI-H441 cells; details: NCI-H441, human non-small cell lung cancer cell strain, KRAS G12V mutation, 3 h compound incubation
Summary of the method: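 Cells with endogenous KRAS mutations, AsPC-1 (G12D) and NCI-H441 (G12V), were plated overnight and then exposed to compound for 3 h at 37 °C (final 0.1% DMSO, 10% FBS medium). ERK T202/Y204 phosphorylation in lysates was read by HTRF, and IC50 was derived from four-parameter curves of inhibition relative to DMSO and blank controls.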

[3] = tested on: AsPC-1 cells; test: 3D cell proliferation assay (CellTiter Glo-3D) in AsPC-1 cells; details: AsPC-1, human pancreatic cancer cell strain, KRAS G12D mutation, 3D culture, 2% FBS, 5 days, read-out: AsPC-1 AP IC50
Text: MIA PaCa-2 cells were purchased from ATCC, Cat. No. CRL-1420; AsPC-1 cells were purchased from ATCC, Cat. No. CRL-1682; NCI-H441 cells were purchased from ATCC, Cat. No. HTB-174; NCI-H1975 cells were purchased from ATCC, Cat. No. CRL-5908; DMEM medium was purchased from Gibco, Cat. No. 11995-065; RPMI-1640 medium was purchased from Gibco, Cat. No. 11875-093; FBS was purchased from Gibco, Cat. No. 10099-141C; penicillin/streptomycin double-antibiotic solution (PS) was purchased from Gibco, Cat. No. 15140-122; Horse serum was purchased from Gibco, Cat. No. 16050130; trypsin (containing EDTA) was purchased from Gibco, Cat. No. 25200-072; DMSO was purchased from VWRAMRESCO, Cat. No. 0231-500ML; 384-well cell culture plates were purchased from Corning, Cat. No. 3830; white-bottomed, opaque 384-well assay plates were purchased from Corning, Cat. No. 3570; CellTiter Glo-3D kit was purchased from Promega, Cat. No. G9683; cell counter was purchased from CHEMOMETEC, model: NC-200; microplate reader was purchased from PerkinElmer, model: EnVision.
MIA PaCa-2, a human pancreatic cancer cell strain endogenously containing a KRAS^G12Cmutation, was cultured in a complete medium containing DMEM + 10% FBS + 2.5% Horse serum + 1% PS. AsPC-1, a human pancreatic cancer cell strain endogenously containing a KRAS^G12D mutation, was cultured in a complete medium containing RPMI-1640 + 10% FBS + 1% PS. NCI-H441 cells, a human lung cancer cell strain endogenously containing a KRAS^G12V mutation, were cultured in a complete medium containing RPMI-1640 + 10% FBS + 1% PS. NCI-H1975, a KRAS wild-type human lung cancer cell strain whose cell proliferation […], was cultured in a complete medium containing RPMI-1640 + 10% FBS + 1% PS.
The cells were digested with trypsin (containing EDTA), collected in their respective low-serum complete media containing 2% FBS (for MIA Paca-2 cell culture: DMEM + 2% FBS + 0.5% Horse serum + 1% PS), and counted. After the cell density was adjusted as required, MIA PaCa-2 cells (200 cells/well), AsPC-1 cells (800 cells/well), NCI-H441 cells (800 cells/well), or NCI-H1975 cells (400 cells/well) were seeded into a 384-well cell culture plate, with the volume of the medium in each well being 45 µL. The cell culture plate was incubated in an incubator at 37 °C with 5% CO2 overnight. A series of 3.16-fold gradient dilutions of a 1000× compound stock solution were prepared with DMSO, and then diluted 100-fold with the complete medium containing 2% FBS described above to give 10× compound stock solutions. On the day after cell seeding, 5 µL of the 10× compound stock solution was added to each cell culture well. As a result, the final concentration of the compound in the cell culture well became 1×, and the DMSO content in the well was 0.1%. In addition to the compound-treated wells described above, cell-containing DMSO control wells (with 5 µL of the complete medium containing 1% DMSO added to each well) and cell-free medium control wells (containing 50 µL of the complete medium with 2% FBS) were also set. The culture plate was incubated in an incubator at 37 °C with 5% CO2 for another 5 days, and then 30 µL of CellTiter-Glo working solution was added to each well. The mixture was well mixed, incubated for 30 min, left to stand at room temperature for 30 min, and then transferred to a white-bottomed, opaque 384-well assay plate at 40 µL/well. The chemiluminescence values (RLU) were measured using a microplate reader, and the cell proliferation inhibition rate for each well was calculated: IR(%) = (RLUDMSO - RLUcompound)/(RLUDMSO - RLUblank) × 100%, where RLUDMSO is the average RLU signal value from the DMSO control well samples, RLUblank is the average RLU signal value from the medium control well samples, and RLUcompound is the RLU signal value from the compound-treated well samples. […]

[4] = tested on: p-ERK; test: Cell p-ERK assay (HTRF, Advance ERK phospho-T202/Y204 kit) in AsPC-1 cells; details: AsPC-1, human pancreatic cancer cell strain, KRAS G12D mutation, 3 h compound incubation
Protocol: AsPC-1 cells were purchased from ATCC, Cat. No. CRL-1682; NCI-H441 cells were purchased from ATCC, Cat. No. HTB-174; RPMI-1640 medium was purchased from Gibco, Cat. No. 11875-093; FBS was purchased from Gibco, Cat. No. 10099-141C; penicillin/streptomycin double-antibiotic solution (PS) was purchased from Gibco, Cat. No. 15140-122; trypsin (containing EDTA) was purchased from Gibco, Cat. No. 25200-072; DMSO was purchased from VWRAMRESCO, Cat. No. 0231-500ML; 96-well cell culture plates were purchased from Corning, Cat. No. 3599; white-bottomed, opaque 96-well plates were purchased from Cisbio, Cat. No. 66PL96025; Advance ERK phospho-T202/Y204 kit was purchased from Cisbio, Cat. No. 64AERPEH; cell counter was purchased from CHEMOMETEC, model: NC-200; microplate reader was purchased from PerkinElmer, model: EnVision.
AsPC-1, a human pancreatic cancer cell strain endogenously containing a KRAS^G12D mutation, was cultured in a complete medium containing RPMI-1640 + 10% FBS + 1% PS. NCI-H441, a human non-small cell lung cancer cell strain endogenously containing a KRAS^G12V mutation, was cultured in a complete medium containing RPMI-1640 + 10% FBS + 1% PS.
The cells were digested with trypsin (containing EDTA), collected in their corresponding complete media, and counted. The density of the cell suspensions was adjusted with their corresponding complete media, and AsPC-1 cells (10000 cells/well) or NCI-H441 cells (20000 cells/well) were seeded into a 96-well cell culture plate, with the volume of the medium in each well being 80 µL. The cell culture plate was incubated in an incubator at 37 °C with 5% CO2 overnight. A series of 3.16-fold gradient dilutions of a 1000× compound stock solution were prepared with DMSO, and then diluted 200-fold with the complete medium described above to give 5× compound stock solutions. On the day after cell seeding, 20 µL of the 5× compound stock solution was added to each cell culture well. As a result, the final concentration of the compound in the cell culture well became 1×, and the DMSO content in the well was 0.1%. In addition to the compound-treated wells described above, cell-containing DMSO control wells were also set. A complete medium containing 0.5% DMSO was added at 20 µL/well. After the mixture was well mixed, the culture plate was incubated in the incubator at 37 °C with 5% CO2 for another 3 h. The medium was then removed from the culture wells, and 50 µL of cell lysis buffer (from Advance ERK phospho-T202/Y204 kit) was added to each well. The mixture was well mixed, incubated for 30 min, and then transferred to a white-bottomed, opaque 96-well assay plate at 16 µL/well, and separately, 16 µL of cell lysis buffer was added to additional wells (serving as blank wells) in the assay plate. After the transfer was completed, 4 µL of p-ERK HTRF antibody mixture (from Advance ERK phospho-T202/Y204 kit) was added to each well of the assay plate, followed by a 4-hour incubation. The HTRF signal values (RLU) were then measured using a microplate reader, and the inhibition rate of the compound against p-ERK levels was calculated as follows: IR(%) = (RLUDMSO - RLUcompound)/(RLUDMSO - RLUblank) × 100%, where RLUDMSO is the average HTRF signal value from the DMSO control well samples, RLU is the average HTRF signal value from the blank well samples, and RLUcompound is the HTRF signal value from the compound-treated well samples. Using an XLfit software, the IR(%) values were plotted against the logarithm of the compound concentrations, and the dose-response curves were fitted using the four-parameter method to calculate the IC50 values.

IC50 ([1]; Homo sapiens, NCI-H441, 120 h) [nM]	IC50 ([2]; Homo sapiens, NCI-H441, 3 h) [nM]	IC50 ([3]; ASPC1, 120 h) [nM]	IC50 ([4]; ASPC1) [nM]	IC50 [1] [nM]	IC50 [2] [nM]	IC50 [3] [nM]	IC50 [4] [nM]	SMILES
0.56	0.6	0.56	1.04	–	–	–	–	CCn1c(F)c2c(c1-c1cc(C#CCN3CCOCC3)cnc1[C@H](C)OC)CC(C)(C)COC(=O)[C@@H]1CCCN(N1)C(=O)[C@@H](NC(=O)[C@H]1[C@H](C)[C@@H]1C)Cc1nc(cs1)/C=C/2 (atropisomer, axis not shown; (Ra)) [Compound Z229, (1r, 2R, 3S)-N-((4^2Z, 8^3S, 2E,6S)-1^1-ethyl-1^2-fluoro-(Ra)-1^5-(2-((S)-1-methoxyethyl)-5-(3-morpholinoprop-yn-1-yl)pyridin-3-yl)-12,12-dimethyl-7,9-dioxo-8^1,8^2,8^3,8^4,8^5,8^6-hexahydro-1^1H-10-oxa-4(4,2)-thiazola-8(1,3)-pyridazina-1(3,4)-pyrrolacyclotridecaphan-2-en-6-yl)-2,3-dimethylcyclopropane-1-carboxamide]
0.41	0.54	0.36	0.94	–	–	–	–	CCn1cc2c(c1-c1cc(C#CCN3CCS(=O)(=O)CC3)cnc1[C@H](C)OC)CC(C)(C)COC(=O)[C@@H]1CCCN(N1)C(=O)[C@@H](NC(=O)[C@H]1[C@@H]3COC[C@@H]31)Cc1nc(cs1)/C=C/2 (atropisomer, axis not shown; (Ra)) [Compound Z130, (1R,5S,6r)-N-((4^2Z,8^3S,2E,6S)-(Ra)-1^5-(5-(3-(1,1-dioxidothiomorpholino)prop-1-yn-1-yl)-2-((S)-1-methoxyethyl)pyridin-3-yl)-1^1-ethyl-12,12-dimethyl-7,9-dioxo-8^1,8^2,8^3,8^4,8^5,8^6-hexahydro-1^1H -10-oxa-4(4,2)-thiazola-8(1,3)-pyridazina-1(3,4)-pyrrolacyclotridecaphan-2-en-6-yl)-3-oxabicyclo[3.1.0]hexane-6-carboxamide]
0.36	0.53	0.35	0.51	–	–	–	–	CO[C@@H](C)c1ncc(C#CCN2CCS(=O)(=O)CC2)cc1-c1c2c(cn1C1CCCC1)/C=C/c1csc(n1)C[C@H](NC(=O)[C@H]1[C@H](C)[C@@H]1C)C(=O)N1CCC[C@H](N1)C(=O)OCC(C)(C)C2 (atropisomer, axis not shown; (Ra)) [Compound Z125, (1r,2R,3S)-N-((4^2Z,8^3S,2E,6S)-1^1-cyclopentyl-(Ra)-1^5-(5-(3-(1,1-dioxidothiomorpholino)prop-1-yn-1-yl)-2-((S)-1-methoxyethyl)pyridin-3-yl)-12,12-dimethyl-7,9-dioxo-8^1,8^2,8^3,8^4,8^5,8^6-hexahydro-1^1H-10-oxa-4(4,2)-thiazola-8(1,3)-pyridazina-1(3,4)-pyrrolycyclotridec-2-en-6-yl)-2,3-dimethylcyclopropane-1-carboxamide]
–	–	–	–	1.85	1.3	2.17	1.46	CCn1c(F)c2c(c1-c1cc(N3CCN(C)CC3)cnc1C(C)OC)CC(C)(C)COC(=O)C1CCCN(N1)C(=O)C(NC(=O)C1C(C)C1C)Cc1nc(cs1)C=C2 [Compound Z75, (1r,2S,3R)-N-((4^2Z,8^3R,2E,6R)-1^1-ethyl-1^2-fluoro-1^5-(2-((S)-1-methoxyethyl)-5-(4-methylpiperazin-1-yl)pyridin-3-yl)-12,12-dimethyl-7,9-dioxo-8^1,8^2,8^3,8^4,8^5,8^6-hexahydro-1^1H-10-oxa-4(4,2)-thiazola-8(1,3)-pyridazina-1(3,4)-pyrrolacyclotridecaphan-2-en-6-yl)-2,3-dimethylcyclopropane-1-carboxamide]

Reference: patent EP4772514A1, “MACROCYCLIC COMPOUNDS, PREPARATION METHOD THEREFOR, AND USE THEREOF” (Genfleet Therapeutics (Shanghai) Inc., priority 2023, dated 2025)
